One block for each compound: values may come before it.
Key:
AGS [1] = test: Antiproliferative activity against human AGS cells by MTT assay; format: functional, cell-based
MKN-45 = test: Antiproliferative activity against human MKN45 cells by MTT assay; format: functional, cell-based
AGS [2] = test: Antitumor activity against human AGS cells xenografted in BALB/c mouse assessed as reduction in tumor growth at 100 mg/kg, ip BID administered for 2 consecutive weeks and measured every 3 days during compound dosing relative to control; format: functional; settings: 72 h, read-out: TGI
AGS [3] = test: Antitumor activity against human AGS cells xenografted in BALB/c mouse assessed as reduction in tumor growth at 200 mg/kg, ip BID administered for 2 consecutive weeks and measured every 3 days during compound dosing relative to control; format: functional; settings: 72 h, read-out: TGI
TRPC6 [4] = test: Inhibition of TRPC6 expressed in HEK293 cells coexpressing M5 receptor assessed as reduction in TRPC6-mediated calcium influx by fluorescence method
[5] = biological target: T1, Short transient receptor potential channel 6 (Homo sapiens, UniProt Q9Y210); test: Inhibition of human TRPC6 expressed in thapsigargin pretreated HEK293 cells assessed as reduction in GPCR-induced calcium entry by fluo-4/AM dye based assay; format: cell-based
T1 sequence (Q9Y210 whole entry): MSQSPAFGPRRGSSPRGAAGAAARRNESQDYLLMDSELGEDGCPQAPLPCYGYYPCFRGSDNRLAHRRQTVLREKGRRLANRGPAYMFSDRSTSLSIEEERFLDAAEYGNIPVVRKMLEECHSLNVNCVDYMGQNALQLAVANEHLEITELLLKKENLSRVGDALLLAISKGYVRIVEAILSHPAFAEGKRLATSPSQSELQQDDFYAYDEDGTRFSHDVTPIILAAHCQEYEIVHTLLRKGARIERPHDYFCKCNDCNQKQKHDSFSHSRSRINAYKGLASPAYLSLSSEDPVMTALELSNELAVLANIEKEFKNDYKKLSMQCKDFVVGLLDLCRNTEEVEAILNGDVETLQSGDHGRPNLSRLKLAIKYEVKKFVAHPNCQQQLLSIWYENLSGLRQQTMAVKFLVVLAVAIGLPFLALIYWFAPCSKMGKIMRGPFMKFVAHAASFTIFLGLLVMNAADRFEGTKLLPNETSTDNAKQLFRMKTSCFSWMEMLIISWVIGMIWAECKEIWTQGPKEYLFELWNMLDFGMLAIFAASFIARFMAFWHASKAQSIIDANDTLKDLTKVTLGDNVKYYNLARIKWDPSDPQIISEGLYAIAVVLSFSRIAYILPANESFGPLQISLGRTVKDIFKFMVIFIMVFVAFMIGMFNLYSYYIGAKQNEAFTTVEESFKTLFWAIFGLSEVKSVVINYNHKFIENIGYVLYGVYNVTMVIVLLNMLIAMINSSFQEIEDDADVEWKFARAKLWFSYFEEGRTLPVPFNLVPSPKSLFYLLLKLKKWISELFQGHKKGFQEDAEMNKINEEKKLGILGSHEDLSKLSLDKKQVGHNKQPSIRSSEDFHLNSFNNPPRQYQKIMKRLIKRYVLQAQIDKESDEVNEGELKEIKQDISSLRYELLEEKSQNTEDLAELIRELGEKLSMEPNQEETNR

[6] = biological target: T2, Short transient receptor potential channel 4 (Homo sapiens, UniProt Q9UBN4); test: Inhibition of human TRPC4 expressed in HEK293 cells assessed as reduction in englerin A-induced calcium entry incubated for 30 mins by Fluo-4AM dye based fluorescence assay; format: cell-based
T2 sequence (Q9UBN4 whole entry): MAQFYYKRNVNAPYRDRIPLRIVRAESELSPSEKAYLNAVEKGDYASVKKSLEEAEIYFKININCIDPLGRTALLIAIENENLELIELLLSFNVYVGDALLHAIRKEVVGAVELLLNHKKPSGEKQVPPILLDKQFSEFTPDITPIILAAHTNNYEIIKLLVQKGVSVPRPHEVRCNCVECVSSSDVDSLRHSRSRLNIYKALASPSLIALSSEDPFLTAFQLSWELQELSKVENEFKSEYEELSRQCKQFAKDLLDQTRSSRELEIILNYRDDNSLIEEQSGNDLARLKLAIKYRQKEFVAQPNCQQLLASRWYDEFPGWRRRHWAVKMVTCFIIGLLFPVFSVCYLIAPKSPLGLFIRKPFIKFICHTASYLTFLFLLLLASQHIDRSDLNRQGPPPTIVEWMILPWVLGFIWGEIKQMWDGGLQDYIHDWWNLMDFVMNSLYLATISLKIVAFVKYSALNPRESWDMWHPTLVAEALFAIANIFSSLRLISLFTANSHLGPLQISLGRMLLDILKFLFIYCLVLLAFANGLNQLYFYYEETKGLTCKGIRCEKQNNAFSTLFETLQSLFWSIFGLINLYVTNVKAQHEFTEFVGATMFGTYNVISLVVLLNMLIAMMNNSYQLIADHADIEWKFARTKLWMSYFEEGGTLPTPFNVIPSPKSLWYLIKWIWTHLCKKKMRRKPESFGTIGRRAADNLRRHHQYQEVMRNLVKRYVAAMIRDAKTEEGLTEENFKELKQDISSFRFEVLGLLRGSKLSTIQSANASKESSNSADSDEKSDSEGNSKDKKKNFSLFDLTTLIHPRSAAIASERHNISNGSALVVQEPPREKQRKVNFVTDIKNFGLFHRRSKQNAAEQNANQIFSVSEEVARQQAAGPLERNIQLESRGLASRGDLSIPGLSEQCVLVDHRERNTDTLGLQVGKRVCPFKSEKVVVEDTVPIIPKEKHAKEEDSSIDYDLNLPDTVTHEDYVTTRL

TRPC1/TRPC5 = TRPC1/TRPC5 (Homo sapiens, UniProt P48995+Q9UL62); test: Inhibition of human TRPC5/human TRPC1 expressed in HEK293 cells assessed as reduction in englerin A-induced calcium entry incubated for 30 mins by Fluo-4AM dye based fluorescence assay; format: cell-based
TRPC4/TRPC1 = TRPC4/TRPC1 (Homo sapiens, UniProt P48995+Q9UBN4); test: Inhibition of human TRPC4/human TRPC1 expressed in HEK293 cells assessed as reduction in englerin A-induced calcium entry incubated for 30 mins by Fluo-4AM dye based fluorescence assay; format: cell-based
[7] = biological target: T2, Short transient receptor potential channel 4; test: Inhibition of human TRPC4 expressed in HEK293 cells assessed as reduction in sphingosine-1-phosphate-induced current at -100 mV by patch clamp assay; format: cell-based
[8] = biological target: T2, Short transient receptor potential channel 4; test: Inhibition of human TRPC4 expressed in HEK293 cells assessed as reduction in sphingosine-1-phosphate-induced current at +100 mV by patch clamp assay; format: cell-based
[9] = Drug concentration in C57BL/6 mouse plasma at 1 mg/kg, iv after 2 hrs by liquid chromatography-tandem mass spectrometry; format: ADME, organism-based; settings: in vivo
[10] = Drug concentration in C57BL/6 mouse brain at 1 mg/kg, iv after 2 hrs by liquid chromatography-tandem mass spectrometry; format: ADME, organism-based; settings: read-out: Drug uptake
[11] = Protein binding in C57BL/6 mouse plasma assessed as unbound fraction by liquid chromatography-tandem mass spectrometry; format: ADME, cell-free
[12] = biological target: T3, Short transient receptor potential channel 3 (Homo sapiens, UniProt Q13507); test: Inhibition of TRPC3 (unknown origin)
T3 sequence (Q13507 whole entry): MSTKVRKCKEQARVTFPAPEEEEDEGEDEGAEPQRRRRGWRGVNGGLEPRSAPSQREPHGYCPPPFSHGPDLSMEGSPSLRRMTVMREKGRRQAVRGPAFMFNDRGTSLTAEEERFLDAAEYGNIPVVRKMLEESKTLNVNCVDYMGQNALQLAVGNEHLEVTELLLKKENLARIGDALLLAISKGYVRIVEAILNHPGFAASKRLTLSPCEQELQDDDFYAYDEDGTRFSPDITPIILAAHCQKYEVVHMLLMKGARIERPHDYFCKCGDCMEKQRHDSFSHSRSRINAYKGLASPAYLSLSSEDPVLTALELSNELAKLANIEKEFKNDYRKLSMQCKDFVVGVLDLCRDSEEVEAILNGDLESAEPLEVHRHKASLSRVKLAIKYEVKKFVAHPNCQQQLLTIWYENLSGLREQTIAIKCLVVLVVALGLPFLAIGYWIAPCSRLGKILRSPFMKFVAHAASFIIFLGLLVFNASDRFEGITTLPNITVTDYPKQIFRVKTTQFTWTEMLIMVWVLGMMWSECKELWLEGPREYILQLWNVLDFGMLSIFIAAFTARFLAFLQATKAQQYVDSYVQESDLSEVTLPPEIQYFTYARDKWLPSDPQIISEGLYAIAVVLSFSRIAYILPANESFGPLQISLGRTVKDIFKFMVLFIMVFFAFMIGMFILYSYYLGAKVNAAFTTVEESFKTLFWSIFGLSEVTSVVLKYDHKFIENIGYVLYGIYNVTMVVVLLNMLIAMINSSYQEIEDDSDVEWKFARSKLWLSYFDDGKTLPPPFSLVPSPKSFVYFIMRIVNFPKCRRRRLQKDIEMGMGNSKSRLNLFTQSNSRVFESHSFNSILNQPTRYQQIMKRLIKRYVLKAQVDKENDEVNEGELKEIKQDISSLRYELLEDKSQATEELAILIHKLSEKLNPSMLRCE

[13] = Inhibition of ORAI (unknown origin) assessed as reduction in Ang2-induced NFAT translocation; set-up: species or system Homo sapiens
[14] = biological target: T3, Short transient receptor potential channel 3; test: Inhibition of YFP-tagged TRPC3 (unknown origin) expressed in HEK293 cells assessed as reduction carbhocol-induced receptor operated Calcium influx after 5 mins by fura-2-AM dye based assay; format: cell-based
ORAI1/STIM1 = ORAI1/STIM1 (Rattus norvegicus, UniProt P84903+Q5M848); test: Inhibition of ORAI/STIM1 in thapsigargin treated rat RBL2H3 cells assessed as reduction in store-operated calcium entry after 5 mins by fura-2-AM dye based assay; format: cell-based
TRPC6 [15] = test: Agonist activity at TRPC6 expressed in HEK293 cells coexpressing M5 receptor assessed as induction of TRPC6-mediated calcium influx by fluorescence method
[16] = biological target: T4, Short transient receptor potential channel 5 (Homo sapiens, UniProt Q9UL62); test: Inhibition of TRPC5 (unknown origin)
T4 sequence (Q9UL62 whole entry): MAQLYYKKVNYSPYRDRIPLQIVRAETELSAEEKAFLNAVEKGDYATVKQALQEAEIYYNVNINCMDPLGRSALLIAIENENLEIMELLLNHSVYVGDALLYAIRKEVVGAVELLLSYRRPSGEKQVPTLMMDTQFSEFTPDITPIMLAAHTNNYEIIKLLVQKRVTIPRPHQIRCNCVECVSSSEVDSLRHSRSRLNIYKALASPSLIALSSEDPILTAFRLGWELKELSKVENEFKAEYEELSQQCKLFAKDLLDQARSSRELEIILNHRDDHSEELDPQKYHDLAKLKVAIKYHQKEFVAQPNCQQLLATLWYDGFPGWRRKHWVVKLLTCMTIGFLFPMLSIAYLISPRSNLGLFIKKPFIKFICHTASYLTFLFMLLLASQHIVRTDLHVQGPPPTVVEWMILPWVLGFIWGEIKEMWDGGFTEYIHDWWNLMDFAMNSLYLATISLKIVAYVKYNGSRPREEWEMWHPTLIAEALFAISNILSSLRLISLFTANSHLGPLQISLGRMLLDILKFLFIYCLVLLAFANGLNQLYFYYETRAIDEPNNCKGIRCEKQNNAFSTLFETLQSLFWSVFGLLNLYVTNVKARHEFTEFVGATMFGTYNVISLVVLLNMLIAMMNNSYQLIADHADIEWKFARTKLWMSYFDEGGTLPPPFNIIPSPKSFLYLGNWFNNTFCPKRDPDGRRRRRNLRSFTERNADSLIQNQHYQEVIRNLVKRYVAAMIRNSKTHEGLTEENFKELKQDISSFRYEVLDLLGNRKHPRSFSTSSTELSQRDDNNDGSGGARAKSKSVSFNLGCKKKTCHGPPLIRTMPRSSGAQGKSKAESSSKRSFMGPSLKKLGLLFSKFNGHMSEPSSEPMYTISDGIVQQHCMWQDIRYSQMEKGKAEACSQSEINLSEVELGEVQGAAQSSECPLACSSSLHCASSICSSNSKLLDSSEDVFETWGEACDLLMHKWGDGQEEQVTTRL

Chain of ORAI1/STIM1 (P84903 whole entry): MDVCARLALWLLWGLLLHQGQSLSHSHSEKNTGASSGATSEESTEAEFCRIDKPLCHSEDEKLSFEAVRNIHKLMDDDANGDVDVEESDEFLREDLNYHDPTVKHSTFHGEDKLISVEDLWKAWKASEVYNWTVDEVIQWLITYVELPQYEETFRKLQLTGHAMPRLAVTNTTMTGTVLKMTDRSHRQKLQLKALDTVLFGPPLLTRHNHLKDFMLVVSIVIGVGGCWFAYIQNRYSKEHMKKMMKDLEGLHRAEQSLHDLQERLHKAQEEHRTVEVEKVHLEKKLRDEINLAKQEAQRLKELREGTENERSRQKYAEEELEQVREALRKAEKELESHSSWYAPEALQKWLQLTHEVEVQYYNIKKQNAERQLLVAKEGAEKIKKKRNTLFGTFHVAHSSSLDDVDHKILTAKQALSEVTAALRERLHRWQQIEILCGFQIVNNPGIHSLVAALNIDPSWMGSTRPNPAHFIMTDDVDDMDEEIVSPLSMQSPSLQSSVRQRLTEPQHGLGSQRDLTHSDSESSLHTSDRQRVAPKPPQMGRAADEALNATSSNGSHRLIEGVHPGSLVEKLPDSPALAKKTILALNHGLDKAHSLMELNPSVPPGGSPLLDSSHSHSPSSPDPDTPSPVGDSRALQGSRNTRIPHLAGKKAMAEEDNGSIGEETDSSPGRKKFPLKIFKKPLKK
Chain of ORAI1/STIM1 (Q5M848 whole entry): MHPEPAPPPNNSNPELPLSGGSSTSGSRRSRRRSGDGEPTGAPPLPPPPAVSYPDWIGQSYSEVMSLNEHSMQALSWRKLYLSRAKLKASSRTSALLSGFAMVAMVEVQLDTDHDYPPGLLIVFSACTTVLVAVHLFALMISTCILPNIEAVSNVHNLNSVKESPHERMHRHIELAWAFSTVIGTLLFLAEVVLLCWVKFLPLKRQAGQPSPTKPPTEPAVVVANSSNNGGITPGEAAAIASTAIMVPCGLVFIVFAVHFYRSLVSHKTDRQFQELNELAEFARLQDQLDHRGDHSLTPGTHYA
Chain of TRPC4/TRPC1 (P48995 whole entry, one chain of several): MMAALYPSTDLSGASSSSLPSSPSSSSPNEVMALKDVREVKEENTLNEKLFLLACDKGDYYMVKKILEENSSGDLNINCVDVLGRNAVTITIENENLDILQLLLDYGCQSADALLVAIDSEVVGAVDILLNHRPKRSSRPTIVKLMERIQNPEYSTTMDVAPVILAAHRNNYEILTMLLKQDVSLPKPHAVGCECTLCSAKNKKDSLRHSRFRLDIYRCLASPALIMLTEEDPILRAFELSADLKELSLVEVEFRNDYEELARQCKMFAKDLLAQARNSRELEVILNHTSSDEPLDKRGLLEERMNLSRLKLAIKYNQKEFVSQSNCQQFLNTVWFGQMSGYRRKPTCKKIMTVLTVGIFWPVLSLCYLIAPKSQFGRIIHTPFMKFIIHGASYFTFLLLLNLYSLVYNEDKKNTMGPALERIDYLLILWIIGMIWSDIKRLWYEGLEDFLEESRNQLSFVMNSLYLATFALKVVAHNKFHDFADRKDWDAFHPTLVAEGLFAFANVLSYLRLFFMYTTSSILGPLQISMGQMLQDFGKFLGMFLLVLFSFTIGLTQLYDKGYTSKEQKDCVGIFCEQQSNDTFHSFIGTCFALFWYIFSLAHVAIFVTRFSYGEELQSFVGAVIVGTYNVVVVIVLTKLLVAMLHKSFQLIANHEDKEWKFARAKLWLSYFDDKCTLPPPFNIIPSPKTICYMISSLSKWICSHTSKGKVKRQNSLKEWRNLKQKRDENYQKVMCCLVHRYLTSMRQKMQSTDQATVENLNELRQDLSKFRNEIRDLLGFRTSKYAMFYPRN
Chain of TRPC1/TRPC5 (P48995 whole entry, one chain of several): as above

Compound: CCOC(=O)N1CCC(C)(c2cc(O)n3nc(C)c(-c4ccc(C(F)(F)F)cc4)c3n2)CC1
IC50 (AGS [1]): 17100 nM
IC50 (MKN-45): 18500 nM
inhibition in vivo at 100 mg/kg (AGS [2]): 38.5%
inhibition in vivo at 200 mg/kg (AGS [3]): 61.5%
IC50 (TRPC6 [4]): 1000 nM

Compound: C=C[C@](C)(O)CC[C@H]1C(=C)C[C@H](O)[C@H]2C(C)(C)CCC[C@]12C
IC50 [5]: 1570 nM

Compound: CCOC(=O)N1CCC(c2cc(O)n3nc(C)c(-c4ccc(F)cc4)c3n2)CC1
EC50 (TRPC6 [15]): 4700 nM

Compound: Cc1nnsc1C(=O)Nc1ccc(-n2nc(C(F)(F)F)cc2C(F)(F)F)cc1
IC50 [16]: 300 nM
IC50 [14]: 4210 nM
IC50 (ORAI1/STIM1): 590 nM

Next, values leading:

IC50 [6]: 0.34 nM
IC50 (TRPC1/TRPC5): 0.19 nM
IC50 (TRPC4/TRPC1): 0.033 nM
IC50 [7]: 0.012 nM
IC50 [8]: 0.03 nM
Compound: Cn1c(=O)n(CCCO)c(=O)c2c1nc(Oc1cccc(OC(F)(F)F)c1)n2Cc1ccc(Cl)cc1 [ZERENCOTREP]

Cp [9]: 299 nmol/kg
concentration at 2 h [10]: 339 nM
Fu [11]: 0.4%
Compound: Cn1c(=O)n(CCCO)c(=O)c2c1nc(Oc1cccc(Cl)c1)n2Cc1ccc(Cl)cc1

IC50 [12]: 700 nM
IC50 [13]: 50 nM
IC50 [14]: 540 nM
IC50 (ORAI1/STIM1): 540 nM
Compound: CCOC(=O)c1cnn(-c2ccc(NC(=O)C(Cl)=C(Cl)Cl)cc2)c1C(F)(F)F

Reference: ChEMBL document CHEMBL4376804, “Review of Transient Receptor Potential Canonical (TRPC5) Channel Modulators and Diseases” (J Med Chem, 2019)
